Results as given in patent publication US12509439B2, “Anti-malarial agents” (UNIVERSITY OF KENTUCKY RESEARCH FOUNDATION, priority 2020, dated 2025).
Read-outs that look alike come from different tables or passages of the source.

Columns and labels:
PfATP-4 = target: T1, PfATP-4 (Plasmodium falciparum, UniProt A0A143ZZK9); assay: Effect on cytosolic [Na+] in saponin-isolated Plasmodium falciparum (sodium flux assay, SBFI); format: cell-based; conditions: SBFI-loaded 3D7 parasites, compound at 1 μM
T1 construct: Saponin-isolated parasites at a density of 1.4-1.8×10^8 cells/mL; endogenous in cells
Description: The ability of compounds of the invention to function as inhibitors of the Na+/H+-ATPase, which regulates parasite cytosolic sodium concentration has been tested in the following assay. Their effect on cytosolic sodium can be measured using a sodium flux assay (Biochemical characterization and chemical inhibition of PfATP4-associated Na+-ATPase activity in Plasmodium falciparum membranes. Rosling J. E. O. et al., 2018, J. Biol. Chem., 293: 13397). Saponin-isolated parasites at a density of 1.4-1.8×10^8 cells/mL, were suspended in bicarbonate-free RPMI1640 supplemented with 20 mM D-glucose, 0.2 mM hypoxanthine, 25 mM HEPES and 25 mg/L gentamycin sulfate (pH 7.10), then treated with sodium-binding benzofuran isophthalate acetoxymethyl ester ([…]) and Pluronic F-127 (0.01% w/v) for 20 min at 37° C. The dye-loaded cells were washed twice (12,000 g, 0.5 min) in bicarbonate-free RPMI then incubated for a further 20 min at 37° C. to allow for complete de-esterification of the dye before being resuspended at a final cell concentration of 1.5-2.5×10^7 cells/mL in standard saline. […] [Na+] was determined according to reference to a calibration curve of the 340/380 nm fluorescence ratio as described previously (In situ calibration and [H+] sensitivity of the fluorescent Na+ indicator SBFI. Diarra A. et al., 2001, Am. J. Physiol. Cell Physiol., 280: 1623).

[1] = Microsomal intrinsic clearance, rat liver microsomes; format: in vitro ADME; conditions: rat liver microsomes (pooled), pH 7.4, 45 min, NADPH
Method: The compounds of the invention (1 μM) were incubated in suspension with human (rat or mouse) liver microsomes pooled from multiple donors (>10) and samples taken at 5 time points over the course of a 45 min experiment and analysed by LC MS/MS. Microsomes (final protein concentration 0.5 mg/mL), 0.1 M phosphate buffer pH 7.4 and test compound (final substrate concentration 1 μM; final DMSO concentration 0.25%) were pre-incubated at 37° C. prior to the addition of NADPH (final concentration 1 mM) to initiate the reaction. A minus cofactor control incubation was included for each compound tested where 0.1 M phosphate buffer pH 7.4 is added instead of NADPH (minus NADPH). All incubations were performed in duplicate for each test compound and the results averaged. Each compound is incubated for 0, 5, 15, 30 and 45 min. The control (minus NADPH) was incubated for 45 min only. The reactions were stopped by transferring incubate into acetonitrile at the appropriate time points, in a 1:3 ratio.
The termination plates were centrifuged at 3,000 rpm for 20 min at 4° C. to precipitate the protein. Following protein precipitation, the sample supernatants were combined in cassettes of up to 4 compounds, internal standard added and samples analysed by LC-MS/MS. From a plot of ln peak area ratio (compound peak area/internal standard peak area) against time, the gradient of the line is determined. Subsequently, half-life (t½) and intrinsic clearance (CLint) are calculated using the equations below: Elimination rate constant (k)=(−gradient) Half-life (t1/2)(min)=0.693/k Intrinsic clearance (i.e. CLint)(μL/min/mg protein)=V×0.693/t1/2 where V=Incubation volume (μL)/Microsomal protein (mg)
Verapamil and dextromethorphan were included in the assay as controls and if the values for these compounds were not within the specified limits the results were rejected and the experiment repeated.

[2] = Hepatocyte intrinsic clearance, cryopreserved human hepatocytes; format: in vitro ADME; conditions: cryopreserved human hepatocytes in suspension (pooled), 60 min
Method: The compounds of the invention (3 μM) were incubated in suspension with cryopreserved human (rat or mouse) hepatocytes pooled from multiple donors (>10) and samples taken at 6 time points over the course of a 60 min experiment and analysed by LC MS/MS. Williams E media supplemented with 2 mM L-glutamine and 25 mM HEPES and test compound (final substrate concentration 3 μM; final DMSO concentration 0.25%) were pre-incubated at 37° C. prior to the addition of a suspension of cryopreserved hepatocytes (final cell density 0.5×10^6 viable cells/mL in Williams E media supplemented with 2 mM L glutamine and 25 mM HEPES) to initiate the reaction. The final incubation volume is 500 μL. The reactions are stopped by transferring aliquots of incubate into acetonitrile at the appropriate time points, in a 1:2 ratio. The termination plates are centrifuged at 3,000 rpm for 20 min at 4° C. to precipitate the protein. Following protein precipitation, the sample supernatants were combined in cassettes of up to 4 compounds, internal standard was added and analysed by LC MS/MS. From a plot of ln peak area ratio (compound peak area/internal standard peak area) against time, the gradient of the line was determined. Subsequently, half-life (t½) and intrinsic clearance (CLint) were calculated using the equations below: Elimination rate constant (k)=(−gradient) Half-life (t½) (min)=0.693/k Intrinsic clearance (i.e. CLint) (μL/min/million cells)=V×0.693/t1/2
where V=Incubation volume (μL)/Number of cells
Verapamil and umbelliferone were included in the assay as controls and if the values for these compounds are not within the specified limits the results were rejected and the experiment repeated.

[3] = Pharmacokinetic profile in dog (IV); conditions: in vivo; for clearance: read-out: Cl (dog); for half-life: read-out: t½ (dog) (converted)
malaria infection = conditions: human volunteers, single dose of 600 milligrams; cited from earlier work

T1 sequence (A0A143ZZK9 whole entry): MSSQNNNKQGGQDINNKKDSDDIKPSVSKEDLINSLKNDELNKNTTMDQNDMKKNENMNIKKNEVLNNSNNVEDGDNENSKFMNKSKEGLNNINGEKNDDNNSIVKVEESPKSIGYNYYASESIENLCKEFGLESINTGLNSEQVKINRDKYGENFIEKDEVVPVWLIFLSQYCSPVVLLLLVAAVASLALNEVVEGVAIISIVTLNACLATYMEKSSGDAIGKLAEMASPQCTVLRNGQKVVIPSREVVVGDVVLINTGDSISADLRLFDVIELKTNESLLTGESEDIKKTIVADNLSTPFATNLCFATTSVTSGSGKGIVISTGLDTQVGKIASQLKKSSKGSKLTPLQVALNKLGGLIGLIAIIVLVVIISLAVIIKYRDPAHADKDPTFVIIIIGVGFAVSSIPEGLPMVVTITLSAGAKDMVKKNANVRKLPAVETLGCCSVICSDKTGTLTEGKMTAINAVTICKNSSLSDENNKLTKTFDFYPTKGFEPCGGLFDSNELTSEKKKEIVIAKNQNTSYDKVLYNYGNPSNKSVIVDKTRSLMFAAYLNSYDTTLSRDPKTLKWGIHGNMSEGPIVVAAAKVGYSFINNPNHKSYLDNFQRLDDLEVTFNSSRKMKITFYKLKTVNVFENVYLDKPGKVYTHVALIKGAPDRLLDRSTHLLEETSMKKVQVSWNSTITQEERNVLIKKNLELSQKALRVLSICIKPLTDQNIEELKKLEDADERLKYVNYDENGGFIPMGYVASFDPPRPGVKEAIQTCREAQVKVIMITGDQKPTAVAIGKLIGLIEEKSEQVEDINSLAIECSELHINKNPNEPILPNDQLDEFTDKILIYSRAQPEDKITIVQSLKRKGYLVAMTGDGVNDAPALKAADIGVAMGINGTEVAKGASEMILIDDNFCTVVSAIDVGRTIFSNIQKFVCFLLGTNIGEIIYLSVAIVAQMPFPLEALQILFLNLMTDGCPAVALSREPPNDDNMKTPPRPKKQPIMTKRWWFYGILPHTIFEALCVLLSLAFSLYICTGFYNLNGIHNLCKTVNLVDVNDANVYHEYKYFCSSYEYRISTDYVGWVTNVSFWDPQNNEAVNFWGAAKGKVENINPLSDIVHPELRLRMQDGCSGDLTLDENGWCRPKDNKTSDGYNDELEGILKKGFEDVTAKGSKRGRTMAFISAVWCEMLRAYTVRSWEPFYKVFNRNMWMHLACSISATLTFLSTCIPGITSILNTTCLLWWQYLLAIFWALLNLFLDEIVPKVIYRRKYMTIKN

Row | clearance ([3]; IV at dose 3 mg/kg) [mL/min/kg] | half-life ([3]; IV at dose 3 mg/kg) [h] | SMILES | Effect on cytosolic [Na+] (PfATP-4) | microsomal CLint at 1 μM [1] [µL/min/mg] | hepatocyte CLint at 3 μM [2] [µL/min/1e6 cells] | clearance ([3]; IV at 1 mg/kg) [mL/min/kg] | half-life ([3]; IV at 1 mg/kg) [h] | Parasitological cure (malaria infection)
1 |  |  | N#Cc1cc(NC(=O)[C@H]2c3ccccc3C(=O)N(CC(F)(F)F)[C@@H]2c2ccc(OC3CC3)nc2)ccc1F (single isomer, unassigned) [(1a)] | increase of cytosolic sodium concentration | < 10 | < 3 | 0.26 | 41 | 
2 |  |  | N#Cc1cc(NC(=O)[C@H]2c3ccccc3C(=O)N(CC(F)(F)F)[C@@H]2c2cnc(C(F)(F)F)nc2)ccc1F [(9a), (3S,4S)—N-(3-cyano-4-fluorophenyl)-1-oxo-2-(2,2,2-trifluoroethyl)-3-(2-(trifluoromethyl)pyrimidin-5-yl)-1,2,3,4-tetrahydroisoquinoline-4-carboxamide] | increase of cytosolic sodium concentration | < 10 | < 3 |  |  | 
3 | 3 | 10 | N#Cc1cc(NC(=O)[C@H]2c3ccccc3C(=O)N(CC(F)(F)F)[C@@H]2c2cccnc2)ccc1F [(+) SJ-733, 4-Isoquinolinecarboxamide, N-(3-cyano-4-fluorophenyl)-1,2,3,4-tetrahydro-1-oxo-3-(3-pyridinyl)-2-(2,2,2-trifluoroethyl)-, (3S,4S)-, reference compound] |  | < 6 | 11.4 |  |  | parasitological cure was not achieved
